Assay results as given in patent publication US5569668A (priority 1995, dated 1996).
Converted amounts (≈) assume the structure as drawn. Where two headings read alike, the source gives them in different places.

What was measured:
Assay type in all cases: cell-based
[1] = tested on: Staphylococcus aureus ATCC29213; assay: MIC of nematophin and its derivatives on Staphylococcus aureus ATCC29213
Bacillus subtilis = assay: MIC of nematophin on candidate microbial pathogens (Bacillus subtilis); details: 24 h, 35° C., Table 1, read-out: Minimum Inhibitory Concentration (MIC)
Botrytis cinerea = assay: MIC of nematophin on candidate microbial pathogens (Botrytis cinerea); details: 48 h, 2 d, 24° C., Table 1, read-out: Minimum Inhibitory Concentration (MIC)
[2] = tested on: Escherichia coli ATCC25922; assay: MIC of nematophin on candidate microbial pathogens (Escherichia coli ATCC25922); details: 24 h, 35° C., Table 1, read-out: Minimum Inhibitory Concentration (MIC)
Phytophthora infestans = assay: microbe, parasite or virus in culture; details: in Secale cereale, 96 h, read-out: Minimum Inhibitory Concentration (MIC)
S. aureus 0012 = assay: microbe, parasite or virus in culture; details: Staphylococcus aureus, 0012, 24 h; read-out: Minimum Inhibitory Concentration (MIC)
S. aureus 0017 = assay: microbe, parasite or virus in culture; details: Staphylococcus aureus, 0017, 24 h; read-out: Minimum Inhibitory Concentration (MIC)
[3] = tested on: antibiotic resistant Staphylococcus; details: conclusion from Table 1 MICs
[4] = Table 2, similar bioassays as for nematophin, read-out: Minimum Inhibitory Concentration (MIC) of the derivatives of nematophin
[5] = 24 h, 35° C., Table 1, read-out: Minimum Inhibitory Concentration (MIC)

Q: Which MIC [1, 4] does the source give for CCC(C)C(=O)C(=O)NCCc1c[nH]c2ccc(OC)cc12 (stereo not shown) [5-MeOIN] here?
A: 3 µg/mL

Q: How did the MIC (Bacillus subtilis) turn out when CCC(C)C(=O)C(=O)NCCc1c[nH]c2ccccc12 (racemic) [SID, 3-indoleethyl(3'-methyl-2'-oxo)pentanamide] was run?
A: 12 µg/mL

Q: What about the MIC (Botrytis cinerea) of the same compound?
A: 12 µg/mL

Q: And the MIC [2]?
A: > 100 µg/mL

Q: And the MIC (Phytophthora infestans)?
A: 2.5 µg/mL (≈ 9.18 µM)

Q: What about the MIC [1, 5] of the same compound?
A: 1.5 µg/mL

Q: And the MIC (S. aureus 0012)?
A: 1.5 µg/mL (≈ 5.51 µM)

Q: And the MIC (S. aureus 0017)?
A: 1.5 µg/mL (≈ 5.51 µM)

Q: And the “antibiotic properties, in particular against antibiotic resistant Staphylococcus” value [3]?
A: potent properties

Q: For CCC(C)C(=O)C(=O)NCCc1c[nH]c2ccccc12 (single isomer, unassigned) [NID, 3-indoleethyl 3-methyl-2-oxo-pentanamide], which MIC (Bacillus subtilis) is on record?
A: 12 µg/mL

Q: What about the MIC (Botrytis cinerea) of the same compound?
A: 12 µg/mL

Q: And the MIC [2]?
A: > 100 µg/mL

Q: What about the MIC [1, 5] of the same compound?
A: 0.7 µg/mL

Q: And the MIC (S. aureus 0012)?
A: 0.7 µg/mL (≈ 2.57 µM)

Q: What about the MIC (S. aureus 0017) of the same compound?
A: 0.7 µg/mL (≈ 2.57 µM)

Q: What about the “antibiotic properties, in particular against antibiotic resistant Staphylococcus” value [3] of the same compound?
A: potent properties

Q: With CCC(C)C(=O)C(=O)OCCc1c[nH]c2ccccc12 (stereo not shown) [OIN, 3-indoleethyl(3'-methyl-2'-oxo)pentanoate] as the compound, how does the MIC [1, 4] read?
A: 25 µg/mL

Q: With CCC(C)C(=O)C(=O)NCCc1c[nH]c2ccc(C)cc12 (stereo not shown) [5-MeIN] as the compound, how does the MIC [1, 4] read?
A: 3 µg/mL

Q: Which MIC [1, 4] does the source give for CC(C)C(=O)C(=O)NCCc1c[nH]c2ccccc12 [MAMIDE] here?
A: 3 µg/mL

Q: How did the MIC [1, 4] turn out when CCC(C)C(=O)C(=O)NCCc1c[nH]c2cc(F)ccc12 (stereo not shown) [6-FIN] was run?
A: 0.7 µg/mL

Q: With CC(=O)C(=O)NCCc1c[nH]c2ccccc12 [PAMIDE, 3-indoleethyl(2'-oxo)propanamide] as the compound, how does the MIC [1, 4] read?
A: 100 µg/mL

Q: Which MIC [1, 4] does the source give for CCC(=O)C(=O)NCCc1c[nH]c2ccccc12 [BAMIDE, 3-indoleethyl(2'-oxo)butanamide] here?
A: 100 µg/mL
